{"source": "ChEMBL document CHEMBL5104095", "about": "“Proteolysis targeting chimera (PROTAC) in drug discovery paradigm: Recent progress and future challenges” (Eur J Med Chem, 2021)", "key": {"Protein cereblon-NS3": {"molecular_target": "Protein cereblon-NS3 (Hepacivirus hominis, UniProt A3EZJ3+Q96SW2)", "sequence (A3EZJ3 whole entry)": "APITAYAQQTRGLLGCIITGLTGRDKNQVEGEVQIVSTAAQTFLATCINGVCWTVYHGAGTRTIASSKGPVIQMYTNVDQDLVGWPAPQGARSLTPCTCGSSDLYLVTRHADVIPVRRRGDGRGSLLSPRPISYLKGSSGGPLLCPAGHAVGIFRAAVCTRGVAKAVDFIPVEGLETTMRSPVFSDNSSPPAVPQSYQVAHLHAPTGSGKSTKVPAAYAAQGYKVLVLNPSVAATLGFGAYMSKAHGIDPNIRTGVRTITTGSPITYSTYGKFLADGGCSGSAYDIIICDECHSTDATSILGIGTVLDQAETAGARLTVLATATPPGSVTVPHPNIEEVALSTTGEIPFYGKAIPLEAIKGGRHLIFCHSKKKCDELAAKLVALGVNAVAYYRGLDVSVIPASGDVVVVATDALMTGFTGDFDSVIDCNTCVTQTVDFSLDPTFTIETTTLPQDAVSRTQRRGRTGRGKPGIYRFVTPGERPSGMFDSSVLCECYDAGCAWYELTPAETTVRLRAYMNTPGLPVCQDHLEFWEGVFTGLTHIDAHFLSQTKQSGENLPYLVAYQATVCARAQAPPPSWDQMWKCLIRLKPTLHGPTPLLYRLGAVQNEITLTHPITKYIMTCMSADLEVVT", "sequence (Q96SW2 whole entry)": "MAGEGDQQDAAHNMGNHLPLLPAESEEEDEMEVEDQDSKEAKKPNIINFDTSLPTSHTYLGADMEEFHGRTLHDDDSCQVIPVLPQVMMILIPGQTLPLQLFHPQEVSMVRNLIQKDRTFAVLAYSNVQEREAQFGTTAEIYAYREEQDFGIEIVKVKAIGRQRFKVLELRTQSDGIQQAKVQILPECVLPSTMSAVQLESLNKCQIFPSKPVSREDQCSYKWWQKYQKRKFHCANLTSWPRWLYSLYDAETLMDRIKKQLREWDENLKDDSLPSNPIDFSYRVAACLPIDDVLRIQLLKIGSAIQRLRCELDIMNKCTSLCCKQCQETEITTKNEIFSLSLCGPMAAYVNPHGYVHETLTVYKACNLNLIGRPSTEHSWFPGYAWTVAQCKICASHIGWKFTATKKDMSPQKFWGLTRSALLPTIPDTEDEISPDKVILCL", "assay": "PROTAC activity at CRBN/NS3 of HCV assessed as induction of NS3-eGFP-2A-mCherry degradation incubated for 4 hrs by flow cytometry"}, "[1]": {"molecular_target": "Protein cereblon/Tyrosine-protein kinase BTK (Homo sapiens, UniProt Q06187+Q96SW2, C481S)", "assay": "PROTAC activity at CRBN/BTK C481S mutant transfected in human HBL1 cells assessed as induction of BTK C481S degradation incubated for 36 hrs by Western blot analysis", "type": "cell-based"}, "[2]": {"molecular_target": "T1, von Hippel-Lindau disease tumor suppressor/Tyrosine-protein kinase ABL1/Breakpoint cluster region protein (Homo sapiens, UniProt P00519+P11274+P40337)", "assay": "PROTAC activity at VHL/BCR-Abl (unknown origin) assessed as induction of BCR-Abl degradation by cell based assay"}, "[3]": {"molecular_target": "T1, von Hippel-Lindau disease tumor suppressor/Tyrosine-protein kinase ABL1/Breakpoint cluster region protein", "assay": "PROTAC activity at VHL/BCR-Abl (unknown origin) assessed as induction of BCR-Abl degradation by cell based assay relative to control"}, "[4]": {"molecular_target": "T2, Protein cereblon/Tyrosine-protein kinase BTK (Homo sapiens, UniProt Q06187+Q96SW2)", "assay": "PROTAC activity at CRBN/BTK in human MINO cells assessed as reduction in BTK level incubated for 24 hrs by Western blot analysis", "type": "cell-based"}, "[5]": {"molecular_target": "T2, Protein cereblon/Tyrosine-protein kinase BTK", "assay": "PROTAC activity at CRBN/BTK in human MINO cells assessed as reduction in BTK level incubated for 24 hrs by Western blot analysis relative to control", "type": "cell-based"}, "[6]": {"molecular_target": "T3, von Hippel-Lindau disease tumor suppressor/Mitogen-activated protein kinase 14 (Homo sapiens, UniProt P40337+Q16539)", "T3 sequence (Q16539 whole entry)": "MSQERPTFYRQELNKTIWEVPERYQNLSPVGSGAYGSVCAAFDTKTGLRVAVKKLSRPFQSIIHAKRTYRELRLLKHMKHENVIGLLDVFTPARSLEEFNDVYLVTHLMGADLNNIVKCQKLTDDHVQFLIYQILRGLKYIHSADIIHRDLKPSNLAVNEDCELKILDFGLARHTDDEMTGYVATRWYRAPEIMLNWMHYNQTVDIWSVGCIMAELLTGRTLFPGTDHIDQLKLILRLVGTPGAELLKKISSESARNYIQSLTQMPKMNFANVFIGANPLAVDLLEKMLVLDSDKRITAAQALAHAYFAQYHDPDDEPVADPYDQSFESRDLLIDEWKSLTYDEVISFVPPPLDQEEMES", "T3 sequence (P40337 whole entry)": "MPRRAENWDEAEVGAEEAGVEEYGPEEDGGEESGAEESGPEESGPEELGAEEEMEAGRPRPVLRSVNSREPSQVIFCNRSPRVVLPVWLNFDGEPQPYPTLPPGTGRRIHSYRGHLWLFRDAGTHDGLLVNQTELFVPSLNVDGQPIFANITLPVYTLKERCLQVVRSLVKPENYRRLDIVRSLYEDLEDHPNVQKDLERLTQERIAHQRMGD", "assay": "PROTAC activity at VHL/p38alpha in human MDA-MB-231 cells assessed as induction of p38alpha degradation incubated for 24 hrs by Western blot analysis", "type": "cell-based"}, "[7]": {"molecular_target": "von Hippel-Lindau disease tumor suppressor/Mitogen-activated protein kinase 14 (Homo sapiens) (UniProt Q16539+P40337)", "sequence (P40337 whole entry partner)": "as the sequence (P40337 whole entry) above", "sequence (Q16539 2-360 limits assumed)": "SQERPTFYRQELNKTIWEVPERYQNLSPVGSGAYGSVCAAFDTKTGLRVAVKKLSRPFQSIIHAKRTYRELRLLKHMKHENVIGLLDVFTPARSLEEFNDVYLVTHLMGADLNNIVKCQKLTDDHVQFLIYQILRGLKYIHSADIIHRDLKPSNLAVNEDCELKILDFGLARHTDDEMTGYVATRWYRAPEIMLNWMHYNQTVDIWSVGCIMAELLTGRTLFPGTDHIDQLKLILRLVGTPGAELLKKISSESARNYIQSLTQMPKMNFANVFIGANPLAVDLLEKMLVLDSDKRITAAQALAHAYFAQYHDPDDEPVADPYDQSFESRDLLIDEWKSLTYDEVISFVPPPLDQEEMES", "assay": "PROTAC activity at VHL/p38alpha in human MDA-MB-231 cells assessed as induction of p38alpha degradation incubated for 24 hrs by Western blot analysis relative to control", "type": "cell-based"}, "[8]": {"molecular_target": "T3, von Hippel-Lindau disease tumor suppressor/Mitogen-activated protein kinase 14", "assay": "PROTAC activity at VHL/p38alpha (unknown origin) assessed as dissociation constant by competitive binding assay"}, "PC-3": {"system": "PC-3", "assay": "Antiproliferative activity against human PC-3 cells assessed as inhibition of cell proliferation incubated for 48 hrs by CCK8 assay", "type": "functional, cell-based", "conditions": "PC-3, 48 h"}, "[9]": {"molecular_target": "BRD4/E3 ubiquitin-protein ligase Mdm2 (Homo sapiens, UniProt O60885+Q00987)", "sequence (Q00987 whole entry, looked up, other chains not shown)": "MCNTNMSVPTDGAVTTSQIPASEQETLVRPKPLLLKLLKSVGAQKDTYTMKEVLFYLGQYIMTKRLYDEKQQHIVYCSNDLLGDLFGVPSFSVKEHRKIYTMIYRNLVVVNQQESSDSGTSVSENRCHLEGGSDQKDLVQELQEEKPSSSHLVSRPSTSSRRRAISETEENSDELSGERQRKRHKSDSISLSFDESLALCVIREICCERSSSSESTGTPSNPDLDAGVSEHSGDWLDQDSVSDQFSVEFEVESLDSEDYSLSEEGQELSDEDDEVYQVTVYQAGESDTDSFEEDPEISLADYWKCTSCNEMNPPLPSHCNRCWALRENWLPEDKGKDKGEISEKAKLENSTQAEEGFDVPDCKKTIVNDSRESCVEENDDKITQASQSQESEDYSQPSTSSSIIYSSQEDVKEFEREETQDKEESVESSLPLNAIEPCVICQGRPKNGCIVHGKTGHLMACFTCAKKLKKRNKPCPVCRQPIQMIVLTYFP", "assay": "PROTAC activity at MDM2/BRD4 in human HCT-116 cells assessed as induction of BRD4 degradation incubated for 24 hrs by immunoblot analysis", "type": "cell-based"}, "[10]": {"molecular_target": "BRD4/E3 ubiquitin-protein ligase Mdm2 (Homo sapiens) (UniProt Q00987+O60885)", "sequence (Q00987 whole entry, looked up, other chains not shown)": "as above", "assay": "PROTAC activity at MDM2/BRD4 in human HCT-116 cells assessed as induction of BRD4 degradation incubated for 24 hrs by immunoblot analysis relative to control", "type": "cell-based"}, "[11]": {"molecular_target": "Protein cereblon/Peptidyl-prolyl cis-trans isomerase FKBP1A (Homo sapiens, UniProt P62942+Q96SW2)", "assay": "PROTAC activity at CRBN/FKBP12 in human Jurkat cells assessed as induction of FKBP12 degradation incubated for 12 hrs by Western blot analysis", "type": "cell-based"}, "[12]": {"molecular_target": "IAP-Tyrosine-protein kinase BTK (Homo sapiens, UniProt P98170+Q06187+Q13489+Q13490)", "sequence (P98170 whole entry)": "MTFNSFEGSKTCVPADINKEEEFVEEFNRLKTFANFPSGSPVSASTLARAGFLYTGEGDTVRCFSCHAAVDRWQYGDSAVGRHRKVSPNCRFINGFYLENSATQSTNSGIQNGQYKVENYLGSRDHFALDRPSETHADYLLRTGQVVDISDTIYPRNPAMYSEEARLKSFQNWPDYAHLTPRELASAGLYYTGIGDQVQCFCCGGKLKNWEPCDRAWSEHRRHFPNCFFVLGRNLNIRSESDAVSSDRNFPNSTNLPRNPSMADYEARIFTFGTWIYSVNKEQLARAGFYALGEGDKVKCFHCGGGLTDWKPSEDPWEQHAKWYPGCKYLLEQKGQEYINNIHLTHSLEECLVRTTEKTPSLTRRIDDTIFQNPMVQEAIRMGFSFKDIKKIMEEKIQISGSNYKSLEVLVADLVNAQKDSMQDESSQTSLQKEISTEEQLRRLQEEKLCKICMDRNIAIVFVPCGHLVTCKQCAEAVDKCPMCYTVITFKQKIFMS", "sequence (Q06187 whole entry)": "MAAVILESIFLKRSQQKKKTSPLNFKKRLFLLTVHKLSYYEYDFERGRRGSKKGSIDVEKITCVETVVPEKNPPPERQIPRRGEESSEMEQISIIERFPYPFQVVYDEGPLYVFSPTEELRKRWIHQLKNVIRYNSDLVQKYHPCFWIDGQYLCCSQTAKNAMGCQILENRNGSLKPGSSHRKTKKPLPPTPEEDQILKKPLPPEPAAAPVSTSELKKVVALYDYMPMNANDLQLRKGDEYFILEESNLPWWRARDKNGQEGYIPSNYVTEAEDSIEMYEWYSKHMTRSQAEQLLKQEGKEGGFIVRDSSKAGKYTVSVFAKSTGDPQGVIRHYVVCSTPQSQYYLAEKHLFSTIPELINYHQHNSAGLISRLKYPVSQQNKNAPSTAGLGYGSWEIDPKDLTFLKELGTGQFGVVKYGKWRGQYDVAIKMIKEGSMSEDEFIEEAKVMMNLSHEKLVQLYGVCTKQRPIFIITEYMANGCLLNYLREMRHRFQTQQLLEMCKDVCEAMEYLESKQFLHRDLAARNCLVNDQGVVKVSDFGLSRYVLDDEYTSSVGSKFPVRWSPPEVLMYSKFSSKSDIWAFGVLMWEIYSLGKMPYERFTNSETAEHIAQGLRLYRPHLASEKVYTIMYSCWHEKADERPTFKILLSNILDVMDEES", "sequence (Q13489 whole entry)": "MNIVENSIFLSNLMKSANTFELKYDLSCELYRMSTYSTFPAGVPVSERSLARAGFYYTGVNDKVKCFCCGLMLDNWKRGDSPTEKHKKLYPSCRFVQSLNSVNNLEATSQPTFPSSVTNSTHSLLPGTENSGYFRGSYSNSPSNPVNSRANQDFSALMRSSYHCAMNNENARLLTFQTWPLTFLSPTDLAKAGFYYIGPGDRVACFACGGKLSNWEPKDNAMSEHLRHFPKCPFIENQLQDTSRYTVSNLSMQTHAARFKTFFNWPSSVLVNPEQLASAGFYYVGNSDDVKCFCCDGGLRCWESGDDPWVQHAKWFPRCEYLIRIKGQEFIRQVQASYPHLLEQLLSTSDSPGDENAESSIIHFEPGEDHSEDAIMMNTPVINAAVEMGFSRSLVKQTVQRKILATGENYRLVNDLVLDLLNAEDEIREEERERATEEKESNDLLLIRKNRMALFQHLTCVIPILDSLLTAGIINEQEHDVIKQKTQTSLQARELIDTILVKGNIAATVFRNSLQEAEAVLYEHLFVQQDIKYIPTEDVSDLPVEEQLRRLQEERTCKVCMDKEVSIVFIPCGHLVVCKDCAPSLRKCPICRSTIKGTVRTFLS", "sequence (Q13490 whole entry)": "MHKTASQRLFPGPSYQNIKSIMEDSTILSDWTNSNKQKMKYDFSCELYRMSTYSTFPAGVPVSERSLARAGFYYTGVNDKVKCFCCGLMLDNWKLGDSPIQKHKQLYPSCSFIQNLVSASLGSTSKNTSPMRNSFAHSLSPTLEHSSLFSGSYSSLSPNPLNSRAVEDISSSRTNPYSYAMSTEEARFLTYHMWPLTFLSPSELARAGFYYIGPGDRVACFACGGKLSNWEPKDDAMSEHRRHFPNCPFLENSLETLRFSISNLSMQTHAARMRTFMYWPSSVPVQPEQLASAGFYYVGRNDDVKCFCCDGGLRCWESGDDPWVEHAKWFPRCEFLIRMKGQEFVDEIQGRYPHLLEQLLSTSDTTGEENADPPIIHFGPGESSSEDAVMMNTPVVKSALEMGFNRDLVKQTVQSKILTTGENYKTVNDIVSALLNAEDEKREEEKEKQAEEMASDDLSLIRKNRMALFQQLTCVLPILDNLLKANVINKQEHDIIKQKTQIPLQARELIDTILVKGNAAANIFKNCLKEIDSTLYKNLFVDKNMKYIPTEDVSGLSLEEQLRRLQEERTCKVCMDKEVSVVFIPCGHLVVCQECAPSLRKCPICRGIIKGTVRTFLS", "assay": "PROTAC activity at IAP/BTK in human THP-1 cells assessed as reduction in BTK level incubated for 16 hrs by immunoblot analysis", "type": "cell-based"}, "[13]": {"molecular_target": "T4, Protein cereblon/Indoleamine 2,3-dioxygenase 1 (Homo sapiens, UniProt P14902+Q96SW2)", "assay": "PROTAC activity at CRBN/IDO1 in human HeLa cells assessed as induction of IDO1 degradation incubated for 24 hrs by immunoblot analysis", "type": "cell-based"}, "[14]": {"molecular_target": "T4, Protein cereblon/Indoleamine 2,3-dioxygenase 1", "assay": "PROTAC activity at CRBN/IDO1 in human HeLa cells assessed as induction of IDO1 degradation incubated for 24 hrs by immunoblot analysis relative to control", "type": "cell-based"}}}
{"smiles": "CCC[C@H](NC(=O)[C@@H]1[C@H]2CCC[C@H]2CN1C(=O)[C@@H](NC(=O)[C@@H](NC(=O)c1cnc(C(=O)NCCOCCOCCNc2cccc3c2C(=O)N(C2CCC(=O)NC2=O)C3=O)cn1)C1CCCCC1)C(C)(C)C)C(=O)C(=O)NC1CC1", "note": "(some centres not stated)", "values": [{"measurement": "EC50", "setting": "Protein cereblon-NS3", "value": 489, "unit": "nM"}]}
{"smiles": "Nc1ncnc2c1c(-c1ccc(Oc3ccccc3)cc1)nn2[C@@H]1CCCN(C(=O)c2cn(CCOCCOCCOCCCc3cccc4c3CN(C3CCC(=O)NC3=O)C4=O)nn2)C1", "note": "(some centres not stated)", "values": [{"measurement": "EC50", "setting": "[1]", "value": 29, "unit": "nM"}]}
{"smiles": "Cc1ncsc1-c1ccc(CNC(=O)[C@@H]2C[C@@H](O)CN2C(=O)[C@@H](NC(=O)COCCOc2ccc(-c3cc(Nc4ccc(OC(F)(F)F)cc4)ncn3)cc2)C(C)(C)C)cc1", "values": [{"measurement": "EC50", "setting": "[2]", "value": 340, "unit": "nM"}, {"measurement": "Emax", "setting": "[3]", "value": "> 95", "unit": "%"}]}
{"smiles": "Nc1ncnc2c1c(-c1ccc(Oc3ccccc3)cc1)nn2[C@H]1CCCN(C(=O)/C=C/CCCCOCCOCCOCCOCCOc2cccc3c2C(=O)N(C2CCC(=O)NC2=O)C3=O)C1", "note": "(some centres not stated)", "values": [{"measurement": "EC50", "setting": "[4]", "value": 10, "unit": "nM"}, {"measurement": "Emax", "setting": "[5]", "value": 90, "unit": "%"}]}
{"smiles": "COc1cc2c(Oc3ccc(NC(=O)C4(C(=O)Nc5ccc(F)cc5)CC4)cc3F)cccc2cc1OCCCOCCCOCCC(=O)N[C@H](C(=O)N1C[C@H](O)C[C@H]1C(=O)NCc1ccc(-c2scnc2C)cc1)C(C)(C)C", "values": [{"measurement": "EC50", "setting": "[6]", "value": 210, "unit": "nM"}, {"measurement": "Emax", "setting": "[7]", "value": 91, "unit": "%"}, {"measurement": "Kd", "setting": "[8]", "value": 11000, "unit": "nM"}]}
{"smiles": "COc1cc2nc(N3CCN(C(=O)c4ccco4)CC3)nc(N)c2cc1OC", "note": "[PRAZOSIN]", "values": [{"measurement": "IC50", "setting": "PC-3", "value": 11700, "unit": "nM"}]}
{"smiles": "COc1cc(C(=O)NCCOCCOCCOCCNC(=O)C[C@@H]2N=C(c3ccc(Cl)cc3)c3c(sc(C)c3C)-n3c(C)nnc32)ccc1NC(=O)[C@@H]1N[C@@H](CC(C)(C)C)[C@](C#N)(c2ccc(Cl)cc2F)[C@H]1c1cccc(Cl)c1F", "values": [{"measurement": "EC50", "setting": "[9]", "value": 32, "unit": "nM"}, {"measurement": "Emax", "setting": "[10]", "value": 98, "unit": "%"}]}
{"smiles": "CCC[C@H](NC(=O)[C@@H]1[C@H]2CCC[C@H]2CN1C(=O)[C@@H](NC(=O)[C@@H](NC(=O)c1cnc(C(=O)NCCOCCOCCOc2cc3c4c(cccc4c2)C(=O)N(C2CCC(=O)NC2=O)C3=O)cn1)C1CCCCC1)C(C)(C)C)C(=O)C(=O)NC1CC1", "note": "(some centres not stated)", "values": [{"measurement": "EC50", "setting": "Protein cereblon-NS3", "value": 50, "unit": "nM"}]}
{"smiles": "CO[C@H]1C[C@@H]2CC[C@@H](C)[C@@](O)(O2)C(=O)C(=O)N2CCCC[C@H]2C(=O)O[C@H]([C@@H](C)C[C@@H]2CC[C@@H](OCCOCc3cn(CCOCCOCCNc4cccc5c4C(=O)N(C4CCC(=O)NC4=O)C5=O)nn3)[C@H](OC)C2)CC(=O)[C@H](C)/C=C(\\C)[C@@H](O)[C@H](OC)C(=O)[C@H](C)C[C@H](C)/C=C/C=C/C=C/1C", "note": "(some centres not stated)", "values": [{"measurement": "EC50", "setting": "[11]", "value": "< 0.3", "unit": "nM"}]}
{"smiles": "CN[C@@H](C)C(=O)N[C@H](C(=O)N1C[C@@H](NC(=O)COCCOCCOCCOCCN2CCN(CCCC(=O)N3CCC[C@@H](n4nc(-c5ccc(Oc6ccccc6)cc5)c5c(N)ncnc54)C3)CC2)C[C@H]1C(=O)N[C@@H]1CCCc2ccccc21)C1CCCCC1", "values": [{"measurement": "EC50", "setting": "[12]", "value": 200, "unit": "nM"}]}
{"smiles": "O=C1CCC(N2C(=O)c3cccc(NCCOCCOCCOCCOCCOCCOCCOCCNCCNc4nonc4/C(=N/O)Nc4ccc(F)c(Br)c4)c3C2=O)C(=O)N1", "note": "(configuration not stated)", "values": [{"measurement": "EC50", "setting": "[13]", "value": 2840, "unit": "nM"}, {"measurement": "Emax", "setting": "[14]", "value": 93, "unit": "%"}]}
